Source: patent EP2548863A1, “New CRTh2 antagonists” (Almirall, S.A., priority 2011, dated 2013)
pIC50: −log10 of the molar value.

What follows are compounds tested against T1, CRTh2 receptor (Homo sapiens, UniProt Q9Y5Y4) (assay: CRTh2 GTPγS antagonism binding assay). Settings: membranes from CHO.K1 cells stably overexpressing the CRTh2 receptor; [35S]-GTPγS 0.1 nM; PGD2 at 50 nM (EC80); IC50 per method; read-out: GTPγ Binding.
T1 construct: expressed in transfected cells; host or cells: CHO.K1 cells (membranes)
T1 sequence (Q9Y5Y4 1-395): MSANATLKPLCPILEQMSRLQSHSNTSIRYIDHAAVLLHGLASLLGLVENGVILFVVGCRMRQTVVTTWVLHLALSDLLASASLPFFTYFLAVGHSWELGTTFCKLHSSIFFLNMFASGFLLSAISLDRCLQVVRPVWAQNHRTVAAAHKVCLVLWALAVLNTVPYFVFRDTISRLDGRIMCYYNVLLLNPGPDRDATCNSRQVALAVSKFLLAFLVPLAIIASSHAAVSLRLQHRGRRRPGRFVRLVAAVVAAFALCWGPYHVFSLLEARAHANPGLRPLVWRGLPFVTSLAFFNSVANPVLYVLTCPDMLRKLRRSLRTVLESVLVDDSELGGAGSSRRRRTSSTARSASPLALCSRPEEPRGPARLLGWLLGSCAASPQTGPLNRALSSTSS
Assay type: biochemical
Protocol: CRTh2 GTPγS antagonism bending assay
The assay is performed using membranes obtained from CHO.K1 cells stably overexpressing the CRTh2 receptor and [^35S]-GTPγS as radioligand. Assay is performed pre-incubating 4-8 µg of membranes per well with the compound to be tested for 1h, followed by incubation with PGD2 at 50 nM (EC80), 0.1 nM [^35S]-GTPγS in incubation buffer (20 mM Herpes, 10 mM MgCl2, 100 mM NaCl, 10 µM GDP, 10 µg/ml Saponine and 0.2% BSA) for 2 h at room temperature. The reaction is terminated by filtering in GF/C plates pre-treated with 20 mM HEPES, 10 mM MgCl2, 100 mM NaCl and washing 6 times with wash buffer (20 mM NaH2PO4, 20 mM Na2HPO4). After washing, plates are dried and scintillation buffer Optiphase added. The radioactivity retained in the filter is counted using a Microbeta liquid scintillation counter. Compound IC50 are determined using Excel XL-fit for calculations.

Row | pIC50 | SMILES
1 | 7.74 | CCN(Cc1cc(C(F)(F)F)ccc1-c1nn(CC(=O)O)c2ccccc12)C(=O)C1CC1 [Example 1, {3-[2-{[(Cyclopropylcarbonyl)(ethyl)amino]methyl]-4-(trifluoromethyl)phenyl]-1H-indazol-1-yl}acetic acid]
2 | 7.82 | CCN(Cc1cc(C(F)(F)F)ccc1-c1nn(CC(=O)O)c2ccc(F)cc12)C(=O)C1CC1 [Example 3, {3-[2-{[(Cyclopropylcarbonyl)(ethyl)amino]methyl}-4-(trifluoromethyl)phenyl]-5-fluoro-1H-indazol-1-yl}acetic acid]
3 | 8.05 | CCN(Cc1cc(F)ccc1-c1nn(CC(=O)O)c2cccc(Cl)c12)C(=O)C1CC1 [Example 4, [4-Chloro-3-(2-{[(cyclopropylcarbonyl)(ethyl)amino]methyl}-4-fluorophenyl)-1H-indazol-1-yl]acetic acid]
4 | 8.15 | CCN(Cc1cc(F)ccc1-c1nn(CC(=O)O)c2ccc(C(F)(F)F)cc12)C(=O)C1CC1 [Example 8, [3-(2-{[(Cyclopropylcarbonyl)(ethyl)amino]methyl}-4-fluorophenyl)-5-(trifluoromethyl)-1H-indazol-1-yl]acetic acid]
5 | 7.89 | CCN(Cc1cc(C(F)(F)F)ccc1-c1nn(C(C)C(=O)O)c2cccc(Cl)c12)C(=O)C1CC1 (stereo not drawn) [Example 9, 2-{4-Chloro-3-[2-{[(cyclopropylcarbonyl)(ethyl)amino]methyl}-4-(trifluoromethyl)phenyl]-1H-indazol-1-yl}propanoic acid]
6 | 8.22 | CCN(Cc1cc(F)ccc1-c1nn(CC(=O)O)c2ccc(Cl)cc12)C(=O)C1CC1 [Example 11, [5-Chloro-3-(2-{[(cyclopropylcarbonyl)(ethyl)amino]methyl}-4-fluorophenyl)-1H-indazol-1-yl]acetic acid]
7 | 8.40 | CCN(Cc1cc(C(F)(F)F)ccc1-c1nn(CC(=O)O)c2cccc(F)c12)C(=O)C1CC1 [Example 14, {3-[2-{[(Cyclopropylcarbonyl)(ethyl)amino]methyl}-4-(trifluoromethyl)phenyl]-4-fluoro-1H-indazol-1-yl}acetic acid]
8 | 8.10 | CCN(Cc1cc(C(F)(F)F)ccc1-c1nn(CC(=O)O)c2ccc(C)cc12)C(=O)C1CC1 [Example 15, {3-[2-{[(Cyclopropylcarbonyl)(ethyl)amino]methyl}-4-(trifluoromethyl)phenyl]-5-methyl-1H-indazol-1-yl}acetic acid]
9 | 8.15 | CCN(Cc1cc(F)ccc1-c1nn(CC(=O)O)c2ccc(Cl)cc12)C(=O)C1CCC1 [Example 19, [5-Chloro-3-(2-{[(cyclobutylcarbonyl)(ethyl)amino]methyl}-4-fluorophenyl)-1H-indazol-1-yl]acetic acid]
10 | 8.10 | CCN(Cc1cc(C(F)(F)F)ccc1-c1nn(CC(=O)O)c2cccc(Cl)c12)C(=O)NCc1ccccc1 [Example 23, (3-[2-{[[(Benzylamino)carbonyl](ethyl)amino]methyl}-4-(trifluoromethyl)phenyl]-4-chloro-1H-indazol-1-yl}acetic acid]
11 | 7.74 | CCN(Cc1cc(C(F)(F)F)ccc1-n1cc(CC(=O)O)c2ccc(F)cc21)C(=O)C1CC1 [Example 30, {1-[2-[[(Cyclopropylcarbonyl)(ethyl)amino]methyl}-4-(trifluoromethyl)phenyl]-6-fluoro-1H-indol-3-yl}acetic acid]
12 | 7.72 | CCN(Cc1cc(C(F)(F)F)ccc1-c1cn(CC(=O)O)c2ccccc12)C(=O)C1CC1 [Example 31, (3-[2-[[(Cyclopropylcarbonyl)(ethyl)amino]methyl)-4-(trifluoromethyl)phenyl]-1H-indol-1-yl}acetic acid]
13 | 7.96 | CCN(Cc1cc(F)ccc1-c1cn(CC(=O)O)c2ccccc12)C(=O)C1CC1 [Example 37, [3-(2-[[(Cyclopropylcarbonyl)(ethyl)amino]methyl}-4-fluorophenyl)-1H-indol-1-yl]acetic acid]
14 | 7.89 | CCN(Cc1cc(F)ccc1-c1cn(CC(=O)O)c2ccc(C(F)(F)F)cc12)C(=O)C1CC1 [Example 39, [3-(2-[[(Cyclopropylcarbonyl)(ethyl)amino]methyl}-4-fluorophenyl)-5-(trifluoromethyl)-1H-indol-1-yl]acetic acid]
15 | 8.52 | CCN(Cc1cc(C(F)(F)F)ccc1-c1cn(CC(=O)O)c2cccc(F)c12)C(=O)C1CC1 [Example 40, (3-[2-[[(Cyclopropylcarbonyl)(ethyl)amino]methyl}-4-(trifluoromethyl)phenyl]-4-fluoro-1H-indol-1-yl}acetic acid]
16 | 8.22 | CCN(Cc1cc(F)ccc1-c1cn(CC(=O)O)c2ccc(F)cc12)C(=O)C1CC1 [Example 42, [3-(2-([(Cyclopropylcarbonyl)(ethyl)amino]methyl}-4-fluorophenyl)-5-fluoro-1H-indol-1-yl]acetic acid]
17 | 8.05 | Cc1nnc(C2CC2)n1Cc1cc(C(F)(F)F)ccc1-c1cn(CC(=O)O)c2ccc(F)cc12 [Example 46, (3-[2-[(3-Cyclopropyl-5-methyl-4H-1,2,4-triazol-4-yl)methyl]-4-(trifluoromethyl)phenyl]-5-fluoro-1H-indol-1-yl}acetic acid]
18 | 7.80 | CCN(Cc1cc(C(F)(F)F)ccc1-c1cn(CC(=O)O)c2ccc(F)c(F)c12)C(=O)C1CC1 [Example 50, {3-[2-{[(Cyclopropylcarbonyl)(ethyl)amino]methyl)-4-(trifluoromethyl)phenyl]-4,5-difluoro-1H-indol-1-yl}acetic acid]
19 | 8.15 | CCN(Cc1cc(F)ccc1-c1cn(CC(=O)O)c2cccc(F)c12)C(=O)C1CC1 [Example 52, [3-(2-{[(Cyclopropylcarbonyl)(ethyl)amino]methyl}-4-fluorophenyl)-4-fluoro-1H-indol-1-yl]acetic acid]
20 | 8.40 | CCN(Cc1ccccc1-c1cn(CC(=O)O)c2ccc(F)cc12)C(=O)C1CC1 [Example 54, [3-(2-([(Cyclopropylcarbonyl)(ethyl)amino]methyl)phenyl)-5-fluoro-1H-indol-1-yl]acetic acid]

Row | SMILES | pIC50
21 | CCN(Cc1cc(C(F)(F)F)ccc1-c1nn(CC(=O)O)c2cccc(Cl)c12)C(=O)C1CC1 [Example 2, {4-Chloro-3-[2-{[(cyccopropylcarbonyl)(ethyl)amino]methyl}-4-(trifluoromethyl)phenyl]-1H-indazol-1-yl}acetic acid] | 8.22
22 | CCN(Cc1cc(C(F)(F)F)ccc1-c1nn(CC(=O)O)c2ccc(Cl)cc12)C(=O)C1CC1 [Example 5] | 7.80
23 | CCN(Cc1cc(C(F)(F)F)ccc1-c1nn(CC(=O)O)c2cccc(C)c12)C(=O)C1CC1 [Example 16, {3-[2-{[(Cyclopropylcarbonyl)(ethyl)ammo]methyl}-4-(trifluoromethyl)phenyl]-4-methyl-1H-indazol-1-yl}acetic acid] | 7.77
24 | CCN(Cc1cc(C(F)(F)F)ccc1-c1nn(CC(=O)O)c2ccc(F)c(Cl)c12)C(=O)C1CC1 [Example 17, {4-Chloro-3-[2-{[(cydopropylcarbonyl)(ethyl)amino]methyl}-4-(trifluoromethyl)phenyl]-5-fluoro-1H-indazol-1-yl}acetic acid] | 8.00
25 | CCN(Cc1cc(F)ccc1-c1nn(CC(=O)O)c2ccc(Cl)cc12)C(=O)OC(C)(C)C [Example 18, [3-(2-{[(tert-Butoxycarbonyl)(ethyl)amino]methyl}-4-fluorophenyl)-5-chloro-1H-indazol-1-yl]acetic acid] | 7.89
26 | CCN(Cc1cc(F)ccc1-c1nn(CC(=O)O)c2ccc(Cl)cc12)C(C)=O [Example 22] | 8.00
27 | CCN(Cc1ccccc1-c1nn(CC(=O)O)c2ccc(Cl)cc12)C(=O)C1CC1 [Example 24] | 8.05
28 | CCN(Cc1cc(C(F)(F)F)ccc1-c1nn(CC(=O)O)c2ccc(Cl)c(F)c12)C(=O)C1CC1 [Example 27] | 7.85
29 | CCN(Cc1cc(C(F)(F)F)ccc1-c1cn(CC(=O)O)c2ccc(F)cc12)C(=O)C1CC1 [Example 33] | 7.74
30 | CCN(Cc1cc(C(F)(F)F)ccc1-c1cn(CC(=O)O)c2ccc(F)cc12)C(=O)NCc1ccccc1 [Example 43, {3-[2-{[[(Benzylamino)carbonyl](ethyl)aaino]methyl]-4-(trifluoromethyl)phenyl]-5-fluoro-1H-indol-1-yl}acetic acid] | 7.80
